Reference: ChEMBL document CHEMBL3400040, “Antileishmanial pharmacomodulation in 8-nitroquinolin-2(1H)-one series” (Bioorg Med Chem, 2015)

Columns and labels:
Leishmania donovani [1] = test: Antileishmanial activity against promastigote stage of Leishmania donovani MHOM/IN/00/DEVI assessed as inhibition of metabolic activity after 72 hrs by MTT assay; assay type: functional, organism-based
[2] = (§1) Cytotoxicity against human HepG2 cells after 72 hrs by MTT assay; assay type: cell-based; details: HepG2 cells
[3] = Selectivity index, CC50 for human HepG2 cells to IC50 for promastigote stage of Leishmania donovani MHOM/IN/00/DEVI; assay type: functional
Leishmania donovani [4] = test: Antileishmanial activity against intracellular amastigote stage of Leishmania donovani MHOM/IN/00/DEVI infected in human THP1 cells assessed as decrease infected macrophages after 120 hrs by microscopy; assay type: functional, organism-based; details: THP-1, 120 h
Leishmania infantum = test: Antileishmanial activity against intracellular amastigote stage of Leishmania infantum MHOM/MA/67/ITMAP-263 expressing luciferase infected in mouse J774A1 cells assessed as inhibition of metabolic activity after 120 hrs by luminescence assay; assay type: functional, organism-based; details: MHOM/MA/67/ITMAP-263, J774.A1, 120 h
[5] = Cytotoxicity against mouse J774A.1 cells after 72 hrs by MTT assay; assay type: cell-based; details: J774.1, 72 h
THP-1 = test: Cytotoxicity against human THP1 cells after 72 hrs by MTT assay; assay type: cell-based; details: THP-1, 72 h
HepG2 = test: as §1; assay type: cell-based; details: hepg2, 72 h
[6] = Leishmania donovani, MHOM/IN/00/DEVI, 72 h, read-out: IC50

Compound | IC50 (Leishmania donovani [1]; [6]) | CC50 at 72 h [2] | Ratio CC50/IC50 [3] | other results
O=c1cc(C#CCCO)c2cccc([N+](=O)[O-])c2[nH]1 | 21.8 µM | 15.9 µM | 0.7 | –
O=c1cc(-c2ccc(Br)cc2)c2cccc([N+](=O)[O-])c2[nH]1 | 3.3 µM | > 31.3 µM | >9.5 | IC50 (Leishmania donovani [4]): > 15.6 µM; IC50 (Leishmania infantum): > 20 µM; IC50 [5]: 9 µM; IC50 (THP-1): > 31.3 µM
CC(C)(C)OCc1cc(=O)[nH]c2c([N+](=O)[O-])cccc12 | > 50 µM | 5.3 µM | <0.1 | –
O=c1cc(C#Cc2ccccc2)c2cccc([N+](=O)[O-])c2[nH]1 | 2.7 µM | 11.6 µM | 4.4 | –
O=C(c1cccc([N+](=O)[O-])c1)c1ccc2ccc(/C=C/c3ccc(O)c(O)c3)nc2c1O | – | – | – | IC50 (Leishmania donovani [4]): 1.22 µM
CCC(O)CC#Cc1cc(=O)[nH]c2c([N+](=O)[O-])cccc12 (stereo not given) | 16.7 µM | 3.8 µM | 0.2 | –
Cc1nc2c(Cl)cccc2c(O)c1CN1CCCCC1C (stereo not given) | – | – | – | IC50 (Leishmania donovani [4]): 0.06 µM
C[C@@H]1[C@H](O)[C@@H](C)/C=C/C=C/C=C/C=C/C=C/C=C/C=C/[C@H](O[C@@H]2O[C@H](C)[C@@H](O)[C@H](N)[C@@H]2O)C[C@@H]2O[C@](O)(C[C@@H](O)C[C@@H](O)[C@H](O)CC[C@@H](O)C[C@@H](O)CC(=O)O[C@H]1C)C[C@H](O)[C@H]2C(=O)O [AMPHOTERICIN B] | – | – | – | IC50 (Leishmania donovani [4]): 0.16 µM; IC50 (Leishmania infantum): 0.06 µM; IC50 [5]: 2.5 µM; IC50 (THP-1): 8.4 µM
O=c1cc(C#Cc2ccc(Cl)cc2)c2cccc([N+](=O)[O-])c2[nH]1 | – | – | – | IC50 (Leishmania donovani [1]): ND(Insoluble); CC50 (HepG2): ND(Insoluble)
COc1cccc(C#Cc2cc(=O)[nH]c3c([N+](=O)[O-])cccc23)c1 | > 10 µM | > 10 µM | – | –
O=c1cc(Br)c2cccc([N+](=O)[O-])c2[nH]1 | 9.6 µM | 27.1 µM | – | –
CCCCCCCCCCCCc1cc(=O)[nH]c2c([N+](=O)[O-])cccc12 | – | – | – | IC50 (Leishmania donovani [1]): ND(Insoluble); CC50 (HepG2): ND(Insoluble)
COc1ccc(-c2cc(=O)[nH]c3c([N+](=O)[O-])cccc23)cc1 | 28 µM | 37.1 µM | 1.3 | –
CCCCCCCCCCCCCCCCOP(=O)([O-])OCC[N+](C)(C)C [MILTEFOSINE] | – | – | – | IC50 (Leishmania donovani [4]): 6.8 µM; IC50 (Leishmania infantum): 4.2 µM; IC50 [5]: 90.4 µM; IC50 (THP-1): 40.5 µM
O=c1cc(-c2ccc(F)cc2)c2cccc([N+](=O)[O-])c2[nH]1 | 28 µM | 36.1 µM | 1.3 | –
O=[N+]([O-])c1cccc2c(Br)cc(Br)nc12 | > 50 µM | > 100 µM | – | –
O=[N+]([O-])c1c(CS(=O)(=O)c2ccccc2)nc2c(Br)cc(Br)cn12 | – | – | – | IC50 (Leishmania donovani [4]): 5.5 µM

Compound | IC50 (Leishmania donovani [1]; [6]) | CC50 at 72 h [2] | Ratio CC50/IC50 [3] | other results
O=c1cc(C#CCO)c2cccc([N+](=O)[O-])c2[nH]1 | 2.4 µM | 2.1 µM | 0.9 | –
Nc1cccc2ccc(=O)[nH]c12 | > 50 µM | > 100 µM | – | –
CSc1ccc(OCc2ncc([N+](=O)[O-])n2C)cc1 [FEXINIDAZOLE] | – | – | – | EC50 (Leishmania donovani [4]): 2.8 µM
O=c1cc(-c2cccnc2)c2cccc([N+](=O)[O-])c2[nH]1 | > 50 µM | 10.1 µM | <1 | –
COc1cccc2c1C(=O)c1c(O)c3c(c(O)c1C2=O)C[C@@](O)(C(=O)CO)C[C@@H]3O[C@H]1C[C@H](N)[C@H](O)[C@H](C)O1 [DOXORUBICIN] | – | – | – | IC50 [5]: 0.06 µM
O=c1cc(-c2ccc(C(F)(F)F)cc2)c2cccc([N+](=O)[O-])c2[nH]1 | 6.1 µM | 42.7 µM | 7 | IC50 (Leishmania donovani [4]): > 20 µM; IC50 (Leishmania infantum): 11.8 µM; IC50 [5]: 33.4 µM; IC50 (THP-1): > 31.3 µM
Cc1ccc(-c2cc(=O)[nH]c3c([N+](=O)[O-])cccc23)cc1 | 9.1 µM | 31 µM | 3.4 | –
O=c1cc(-c2ccccc2)c2cccc([N+](=O)[O-])c2[nH]1 | 14.7 µM | 31.9 µM | 2.2 | –
CCN(CC)CCCCCCNc1cc(OC)cc2c(C)ccnc12 [SITAMAQUINE] | – | – | – | IC50 (Leishmania donovani [4]): 1 µM
O=c1cc(C#CCOc2ccccc2)c2cccc([N+](=O)[O-])c2[nH]1 | 1.4 µM | 1.8 µM | 1.3 | –
O=c1cc(-c2ccncc2)c2cccc([N+](=O)[O-])c2[nH]1 | 77.2 µM | 15.7 µM | 0.2 | –
O=c1cc(-c2ccc(Cl)cc2)c2cccc([N+](=O)[O-])c2[nH]1 | 4.2 µM | 16.1 µM | 3.8 | –
Cc1ccc(-c2cc(=O)[nH]c3c([N+](=O)[O-])cccc23)s1 | > 5 µM | > 15.6 µM | – | –
O=c1cc(-c2cccc(C(F)(F)F)c2)c2cccc([N+](=O)[O-])c2[nH]1 | > 5 µM | 14.7 µM | <2.9 | –
O=c1cc(-c2ccco2)c2cccc([N+](=O)[O-])c2[nH]1 | > 5 µM | > 31.3 µM | – | –
N=C(N)c1ccc(OCCCCCOc2ccc(C(=N)N)cc2)cc1 [PENTAMIDINE] | – | – | 0.4 | IC50 (Leishmania donovani [4]): > 20 µM; IC50 (Leishmania infantum): > 20 µM; IC50 [5]: 1 µM
